Measured values from patent US4696920A, “Certain 2-substituted 1,3-propylidenediphosphonate derivatives, pharmaceutical compositions containing them and their use as antihypertensive agents” (priority 1984, dated 1987).
“Also recorded” adds a separate entry of the source.

Key:
[1] = tested on: drug receptor sites associated with calcium channels; conditions: known calcium antagonists; cited from earlier work
[2] = tested on: [^3 H]-PN-200 110 (dihydropyridine) binding site of calcium channel, rat brain membranes; assay: [^3 H]-PN-200 110 binding to rat brain membranes; parameters: species or system rat (male Wistar); conditions: for Specifically bound [^3 H]-PN-200 110 % of control value: compound concentration 1.0 μM; for Specifically bound [^3 H]-PN-200 110 % of control value / Bound ^3 H at 1.0 μM / Bound ^3 H at 0.1 μM: Table 1b; for Bound ^3 H at 1.0 μM / Bound ^3 H at 0.1 μM: ratio of [^3 H]-PN-200 110 bound at 1.0 and 0.1 μM compound; for potency in [^3 H]-PN200 110 binding (in words): text on Table 1b
Method: (§1) Diltiazem hydrochloride was a generous gift from Goedecke A. G.
Water insoluble compounds were dissolved in absolute ethanol to give 10 mM or 2.5 mM stock solutions. Suitable dilutions were made in 50 mM Tris-HCl buffer (pH 7.4) containing 150 mM NaCl and 1 mM CaCl2. The ethanol concentration in the final assay never exceeded 0.1%.
(§2) The purity of the radioligand and of the various agents tested was monitored by thin layer chromatography on silica gel plates.
(§3) The following procedure was adapted from Bellemann et al (Proc. Nat. Acad. Sci. 80, 2356, 1983), and Gould et al (Proc. Nat. Acad. Sci. 79, 3656, 1982).
(§4) Adult male Wistar rats weighing 250-300 g were anesthetized with carbon dioxide prior to decapitation. The brain was removed then immersed in ice-cold 0.32M sucrose and washed 2-3 times with fresh solution. Cerebral cortex was minced and homogenized (Potter-Elvehjem homogenizer) in 10 volumes of ice-cold sucrose solution. The homogenate was centrifuged (4° C.) at 1000×g for 15 minutes. The resulting supernatant was then centrifuged at 90000×g (30 minutes) and the pellet was washed twice with 20 ml ice-cold 50 mM Tris-HCl pH 7.4.
(§5) The final pellet was resuspended in 50 mM Tris-HCl pH 7.4/150 mM NaCl/1 mM CaCl2 to give a protein concentration of 4 mg/ml.
(§6) The membrane suspension was kept on ice until used. Binding assays were performed in subdued light to prevent dihydropyridine breakdown. Membrane protein (400 μg/tube) was incubated in 50 mM Tris-HCl buffer (pH 7.4)/150 mM NaCl/1 mM CaCl2 with the indicated concentrations of radioligand and test compounds or known calcium antagonists, in a total volume of 2 ml. After the indicated time intervals, the reaction was terminated by rapid filtration through Whatman GF/B glass fiber filters (2.4 cm diameter) on a Millipore filter holder. The assay tube was rinsed with 2 ml ice-cold 50 mM Tris-HCl pH (7.4) and the precipitate was further washed with 2×5 ml of the same buffer.
(§7) Filters were dried under a heat lamp and were extracted with 10 ml of liquid scintillation cocktail (Toluene/Triton X-100, 2/1 containing 4 g Omnifluor/1) prior to tritium determination at 48% counting efficiency.
(§8) Assays were performed in duplicate or triplicate.
(§9) Data were expressed as percent specific [^3 H]-Nitrendipine binding relative to the established control value.
(§10) Compound activity in the [^3 H]-Nitrendipine binding assay was evaluated by using the following criteria:
(§11) 1. [^3 H]-Nitrendipine binding at 1.0 μM compound final concentration was either below 95% or above 105% of the control value determined in absence of compound.
2. The ratio obtained by dividing the amount of specifically found [^3 H]-Nitrendipine at 1.0 μM compound final concentration by the value obtained at 0.1 μM test compound, was smaller than 0.9 or greater than 1.1. This ratio is indicative of a dose response relationship within the compound concentration range tested, when the value differs appreciably from 1.0.
Note: In some experiments [^3 H]-PN200 110, a new and commercially available specific dihydropyridine was used instead of [^3 H]-Nitrendipine.

[3] = tested on: calcium channel binding site for [^3 H]-Nitrendipine (rat brain membranes); assay: [^3 H]-Nitrendipine binding to rat brain membranes; parameters: species or system rat (male Wistar); conditions: for Specifically bound [^3 H]-Nitrendipine % of control value: compound concentration 1.0 μM; for Bound ^3 H at 1.0 μM / Bound ^3 H at 0.1 μM: ratio of [^3 H]-Nitrendipine bound at 1.0 and 0.1 μM compound
Method: as §1
Suitable dilutions were made in 50 mM Tris-HCl buffer (pH 7.4) containing 150 mM NaCl and 1 mM CaCl2. The ethanol concentration in the final assay never exceeded 0.1%.
as §2, §3, §4, §5, §6, §7, §8, §9, §10, §11
2. […] This ratio is indicative of a dose response relationship within the compound concentration range tested, when the value differs appreciably from 1.0.

[4] = tested on: rat trachea contraction induced by KCl depolarization; assay: KCl-induced rat trachea contraction; parameters: species or system rat (male SHR, Okamoto-Aoki); conditions: for activity at 1 µM: Rattus norvegicus, 40 min, read-out: Contraction (% max.)
Method: Spontaneously hypertensive male rats (SHR) Okamoto-Aoki Strain, weighing 300-400 g were used in this study. They were killed by bleeding after Pentobarbital anesthesia (Nembutal, Abbott Co, 40 mg/kg). Their entire trachea was quickly removed and dissected free of fat and connective tissue in Krebs-Ringer solution. A strip (4 mm×40 mm), obtained by spirally cutting the trachea, was immediately suspended in a 50 ml Krebs-Ringer solution and continuously bubbled with a O2 /CO2 (95/5) mixture. Bath temperature was maintained at 37±1° C. The composition (mM) of the Krebs-Ringer solution modified by Nghiem, was as follows: NaCl, (118.0); KCl, (4.7); CaCl2, (2.5); MgCl2, (1.18); NaHCO3, (12.5); KH2 P04, (1.18); glucose, (5.5) in bidistilled water (pH 7.4). Each strip was equilibrated under initial tension (1.5-2 g) for 1-2 hours and the bath solution changed every 30 min. A contractile or relaxant response was isometrically measured with a force-displacement transducer (Ugo-Basile) and recorded on a polygraph (Beckman).
After equilibration, KCl was added to the bath at 65 mM final concentration. This concentration produced maximum trachea contraction. Under these conditions, a plateau phase showing a tonic sustained contraction was reached within 30 minutes. Drugs were added 30 minutes after the plateau phase has been reached (final concentration=1.0 μM). […] Recordings of the residual trachea contraction were made 40 minutes after drug addition to the bathing fluid. The initial KCl induced contraction was taken as the maximum KCl response (100%). Results were expressed as % of maximal contraction. Nifedipine, Prenylamine, Flunarizine and Diltiazem were used as reference standards to validate this assay.
All 1,3-diphosphonates and drugs were dissolved in saline (0.9% NaCl) except when water insoluble, then the compounds were dissolved in 2% ethanol. The final concentration of ethanol used has been shown not to interfere with the assay.
Results are expressed as mean values±SEM, the Student's t-test was used for statistical analysis.

[5] = tested on: blood pressure in hypertensive rats; assay: Oral hypotensive activity in hypertensive rats (tail cuff); type: in vivo, rat (spontaneously hypertensive, SHR); conditions: Table 5
Method: Some selected compounds were given orally to conscious SHR rats and blood pressure was monitored using the tail cuff method. A marked and sustained hypotensive activity was measured in all treated rats. Results are given 2 hours post dose (Table 5). These studies illustrate the obvious potential use of orally administered 1,3-diphosphonates for the clinical treatment of hypertension in man.

[6] = tested on: mean blood pressure in rat; assay: Acute intravenous hypotensive activity in anesthetized rats; type: in vivo, rat (male Wistar)
Method: Male Wistar rats were anesthetized with Pentobarbital (Nembutal, 60 mg/kg i.p.) and heparinized (5 mg/kg i.p.). After tracheotomy the right carotid was cannulated (catheter PE 50); blood pressure was measured with a pressure transducer (Statham P 23 db) and recorded on a polygraph (Beckman).
Animals received 0.5 and 1.5 mg/kg of the test compounds. Less than 100 μl of test compounds dissolved in 0.9% saline were injected in the jugular vein. Highly water insoluble compounds were suspended in 2% Tween-80. Injection of the vehicle alone had no detectable hypotensive effect.
Results presented are expressed as percent decrease in initial mean blood pressure (Mean±SEM).

SMILES | effect on [^3 H]-Nitrendipine binding (in words) [1] | Specifically bound [^3 H]-PN-200 110 % of control value [2] | Bound ^3 H at 1.0 μM / Bound ^3 H at 0.1 μM [2] | oral hypotensive activity (in words) [5] | further results
C(=C\c1ccccc1)/CN1CCN(C(c2ccccc2)c2ccccc2)CC1 [Cinnarizine] | reduce [^3 H]-Nitrendipine binding affinity | – | – | – | –
CCCCOP(=O)(CC(CCOc1ccccc1)CP(=O)(OCCCC)OCCCC)OCCCC [Compound 79, Tetrabutyl 2-(2-phenoxyethyl)-1,3-propylidenediphosphonate] | – | 3 % of control value | 0.211 | decrease blood pressure as markedly as the marketed calcium antagonists used as references | modulation of [^3 H]-Nitrendipine binding (in words) ([3]; Table 1a): strong inhibitors; Specifically bound [^3 H]-Nitrendipine % of control value ([3]; Table 1a): 0 % of control value; Bound ^3 H at 1.0 μM / Bound ^3 H at 0.1 μM ([3]; Table 1a): 0.000; activity at 1 µM [4]: 60.3 ± 9.6%; activity on KCl-induced trachea contraction (in words) ([4]; final concentration 1.0 μM): potent pharmacological activity
CCCCOP(=O)(CC(Cc1cc(OC)c(OC)c(OC)c1)CP(=O)(OCCCC)OCCCC)OCCCC [Compound 82] | – | – | – | – | inhibition in vivo at 0.5 mg/kg ([6]; Rattus norvegicus, iv, read-out: Decrease in mean blood pressure (% pretest)): 40.1 ± 3.2%; hypotensive activity (in words) ([6]; acute i.v., Table 4): hypotensive activity superior to that of classical hypotensive drugs and of the calcium antagonists used as references; Specifically bound [^3 H]-Nitrendipine % of control value ([3]; Table 1a): 90 % of control value; Bound ^3 H at 1.0 μM / Bound ^3 H at 0.1 μM ([3]; Table 1a): 0.886; activity at 1 µM [4]: 80 ± 4%
CCCCOP(=O)(CC(CCOc1ccc(F)cc1)CP(=O)(OCCCC)OCCCC)OCCCC [Compound 89] | – | 6 % of control value | 0.310 | decrease blood pressure as markedly as the marketed calcium antagonists used as references | potency in [^3 H]-PN200 110 binding (in words) [2]: as potent as Nifedipine
CCCCOP(=O)(CC(CCOc1ccc(Cl)cc1)CP(=O)(OCCCC)OCCCC)OCCCC [Compound 90] | – | 4 % of control value | 0.243 | decrease blood pressure as markedly as the marketed calcium antagonists used as references | potency in [^3 H]-PN200 110 binding (in words) [2]: as potent as Nifedipine
CCCCOP(=O)(CC(CCOc1ccc(Br)cc1)CP(=O)(OCCCC)OCCCC)OCCCC [Compound 91] | – | 15 % of control value | 0.420 | decrease blood pressure as markedly as the marketed calcium antagonists used as references | –
CCCCOP(=O)(CC(CCOc1ccc(OC)cc1)CP(=O)(OCCCC)OCCCC)OCCCC [Compound 92] | – | 0 % of control value | 0.000 | decrease blood pressure as markedly as the marketed calcium antagonists used as references | potency in [^3 H]-PN200 110 binding (in words) [2]: as potent as Nifedipine
CCCCOP(=O)(CC(CCOc1cccc(C(F)(F)F)c1)CP(=O)(OCCCC)OCCCC)OCCCC [Compound 93] | – | 0 % of control value | 0.000 | decrease blood pressure as markedly as the marketed calcium antagonists used as references | potency in [^3 H]-PN200 110 binding (in words) [2]: as potent as Nifedipine
COc1ccc(CCN(C)CCCC(C#N)(c2cc(OC)c(OC)c(OC)c2)C(C)C)cc1OC [Compound D-600] | reduce [^3 H]-Nitrendipine binding affinity | – | – | – | –
Fc1ccc(C(c2ccc(F)cc2)N2CCN(C/C=C/c3ccccc3)CC2)cc1 [Flunarizine] | reduce [^3 H]-Nitrendipine binding affinity | – | – | – | –
Cc1cccc(C)c1NC(=O)CN1CCN(CCCC(c2ccc(F)cc2)c2ccc(F)cc2)CC1 [Lidoflazine] | reduce [^3 H]-Nitrendipine binding affinity | – | – | – | –
CC(Cc1ccccc1)NCCC(c1ccccc1)c1ccccc1 (stereo not shown) [Prenylamine, reference compound] | reduce [^3 H]-Nitrendipine binding affinity | – | – | – | % [^3 H]-Nitrendipine bound ([3]; reference standards at 1 μM): 57%
COc1ccc(CCN(C)CCCC2(c3ccc(OC)c(OC)c3)S(=O)(=O)CCCS2(=O)=O)cc1OC [Tiapamil] | reduce [^3 H]-Nitrendipine binding affinity | – | – | – | –
COc1ccc(CCN(C)CCCC(C#N)(c2ccc(OC)c(OC)c2)C(C)C)cc1OC (stereo not shown) [Verapamil] | inhibitors; also recorded: reduce [^3 H]-Nitrendipine binding affinity | – | – | – | –
